According to PMC12298624, “Anti-Infective Properties, Cytotoxicity, and In Silico ADME Parameters of Novel 4′-(Piperazin-1-yl)benzanilides” (Pharmaceuticals, 2025):
Read-outs that look alike come from different tables or passages of the source.

Tests used:
L-6 cells = assay: Resazurin-based in vitro cytotoxicity with L-6 cells; format: cell-based, rat
Outline: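 Compounds tested in eleven 3-fold serial dilutions from 100 to 0.002 µg/mL over 70 h incubation. IC50 obtained by linear regression from sigmoidal dose–inhibition curves.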

P. falciparum NF54 [1] = assay: In vitro microplate assay against P. falciparum NF54 (3H-hypoxanthine incorporation); format: cell-based, Plasmodium falciparum; conditions: chloroquine-sensitive strain NF54, erythrocytic stages; read-out: P.f.NF54 IC50
Outline: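 Parasites exposed to eleven 3-fold drug dilutions spanning 100 to 0.002 µg/mL for 48 h, then ^3H-hypoxanthine (0.5 µCi/well) added for a further 24 h. Incorporated radioactivity counted by liquid scintillation after harvesting onto glass fiber filters. IC50 from sigmoidal inhibition curves by linear regression.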

HepG2 cells = assay: Resazurin-based in vitro cytotoxicity with HepG2 cells; format: cell-based, human
Outline: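 HepG2 cells, 5000 per well in DMEM with 1% FBS, exposed 48 h at 37° C to ten 3-fold dilutions (100.0–0.005 µM). Then 50 µM resazurin for 3 h, fluorescence read at 555/570 nm, IC50 calculated; doxorubicin as control.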

P. falciparum NF54 [2] = tested on: P. falciparum NF54; parameters: method as in PMID 34832891, PMID 36558954; conditions: Figure 1, earlier studies; ref [12],[13]; read-out: PfNF54 IC50; cited from earlier work

| Compound | IC50 (L-6 cells) [µM] | IC50 (P. falciparum NF54 [1]) [nM] | IC50 (HepG2 cells) [µM] | IC50 (P. falciparum NF54 [2]) [nM] |
| --- | --- | --- | --- | --- |
| 2-(4-Fluorophenoxy)-N-[4-(pyrrolidin-4-yl)phenyl]-3-(trifluoromethyl)benzamide [Compound 34] | 185 | 1680 | 39.8 |  |
| CC(C)(C)OC(=O)N1CCN(c2ccc(NC(=O)c3cccc(C(F)(F)F)c3Sc3ccc(F)cc3)cc2)CC1 [derivate III] |  |  |  | 150 |
| CC(C)(C)C(=O)N1CCN(c2ccc(NC(=O)c3cccc(C(F)(F)F)c3Oc3ccc(F)cc3)cc2)CC1 [derivate II] |  |  |  | 580 |
| CC(C)(C)OC(=O)N1CCN(c2ccc(NC(=O)c3cccc(C(F)(F)F)c3Nc3ccc(F)cc3)cc2)CC1 [derivate IV] |  |  |  | 540 |
| CC(C)(C)OC(=O)N1CCN(c2ccc(NC(=O)c3cccc(C(F)(F)F)c3Oc3ccc(F)cc3)cc2)CC1 [derivate I] |  |  |  | 270 |
